Measured values published in paper PMC6320249 (ACS chemical biology, 2015).

Tests used:
[1] = molecular target: T1, p300 (Homo sapiens, UniProt Q09472); experiment: Microfluidic mobility shift KAT assay, p300 with FITC-H4; format: biochemical
T1 sequence (Q09472 1195-1662): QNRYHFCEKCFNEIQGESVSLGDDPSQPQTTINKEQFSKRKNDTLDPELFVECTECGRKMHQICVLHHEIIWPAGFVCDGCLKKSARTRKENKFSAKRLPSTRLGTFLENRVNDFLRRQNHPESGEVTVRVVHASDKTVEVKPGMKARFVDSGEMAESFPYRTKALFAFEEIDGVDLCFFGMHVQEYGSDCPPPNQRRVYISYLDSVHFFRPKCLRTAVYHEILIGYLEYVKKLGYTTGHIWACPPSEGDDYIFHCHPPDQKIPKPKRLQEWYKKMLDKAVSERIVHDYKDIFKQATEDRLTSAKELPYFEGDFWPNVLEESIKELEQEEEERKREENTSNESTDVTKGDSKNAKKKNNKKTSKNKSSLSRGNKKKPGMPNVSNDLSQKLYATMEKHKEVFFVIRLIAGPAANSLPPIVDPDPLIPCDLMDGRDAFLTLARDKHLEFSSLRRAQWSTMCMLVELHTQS

[2] = molecular target: T2, Gcn5 (Homo sapiens, UniProt Q92830); experiment: Microfluidic mobility shift KAT assay, Gcn5 with FITC-H3; format: biochemical; details: for inhibition of Gcn5 in pilot screen: acetyl-CoA 1 μM, unicate, hydroxylamine quench; for detergent sensitivity of Gcn5 inhibition: low (0.01%) compared to high (0.05%) Triton-X
T2 sequence (Q92830 497-662): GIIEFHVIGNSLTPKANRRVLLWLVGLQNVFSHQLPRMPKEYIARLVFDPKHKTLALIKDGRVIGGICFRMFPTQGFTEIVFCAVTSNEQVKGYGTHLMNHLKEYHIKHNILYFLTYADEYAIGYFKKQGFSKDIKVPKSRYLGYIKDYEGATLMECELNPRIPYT

[3] = molecular target: T2, Gcn5; experiment: Real-time kinetic monitoring of Gcn5-catalyzed acetylation; format: biochemical; details: first 25 min vs last 25 min of 100 min; uninhibited enzyme = 1
[4] = tested on: HepG2 cells; experiment: Effect of garcinol on acetylation in HepG2 cells; format: cell-based
[5] = tested on: cell viability; experiment: Cell viability / toxicity; format: cell-based; details: at concentrations of ~60 μM

| SMILES | inhibition of Gcn5 in pilot screen ([2]; compound 40 μM) | effect on p300 in pilot screen (in words) ([1]; compound 40 μM) | detergent sensitivity of Gcn5 inhibition [2] | time dependence value (ratio of acetylation rates at early/late intervals) [3] | also measured |
| --- | --- | --- | --- | --- | --- |
| CC(=O)N[C@@H](CCCCNC(=O)CSCCNC(=O)CCNC(=O)[C@H](O)C(C)(C)COP(=O)(O)OP(=O)(O)OC[C@H]1O[C@@H](n2cnc3c(N)ncnc32)[C@H](O)[C@@H]1OP(=O)(O)O)C(N)=O [Lys-CoA] | greater than 40% |  |  |  | inhibition of p300 in pilot screen ([1]; compound 40 μM, acetyl-CoA 1 μM, unicate, hydroxylamine quench): greater than 40%; p300 versus Gcn5 selectivity in pilot screen (in words) ([1]; compound 40 μM, p300 compared to Gcn5): inhibited p300 considerably more strongly than Gcn5 |
| CCCCCCCc1ccc(CCc2cccc(O)c2C(=O)O)cc1 [MG-149] | greater than 40% |  |  |  |  |
| C=C(C)[C@@H](CC=C(C)C)C[C@@]12C[C@@H](CC=C(C)C)C(C)(C)[C@@](CC=C(C)C)(C(=O)C(C(=O)c3ccc(O)c(O)c3)=C1O)C2=O [garcinol] |  | Selective inhibition of p300 | significantly greater inhibitory activity | > 1 | detergent sensitivity of p300 inhibition ([1]; low (0.01%) compared to high (0.05%) Triton-X): significantly greater inhibitory activity; effect on Gcn5 in pilot screen (in words) ([2]; compound 40 μM): did not manifest as a Gcn5 hit; lowest concentration with effects on acetylation [4]: ~ 25 μM; toxicity [5]: toxic |
| Cc1cc2c(C(C)C)c(O)c(O)c(C=O)c2c(O)c1-c1c(C)cc2c(C(C)C)c(O)c(O)c(C=O)c2c1O [gossypol] |  |  | detergent-sensitive inhibition | > 1 | inhibition at 40 µM ([2]; read-out: inhibition of Gcn5 in pilot screen): > 40% |
| O=C1c2c(O)ccc(O)c2C(=O)c2c(NCCNCCO)ccc(NCCNCCO)c21 [mitoxantrone] |  | selective p300 activation |  |  |  |
